How the values were obtained:
[1] = biological target: T1, RXR-VDR heterodimer (Homo sapiens, UniProt P11473); assay: RXR-VDR heterodimerization (SaOS-2 cells) test; assay type: cell-based; conditions: Gal-4-RXR-DEF / VP16-VDR-LBD, luciferase reporter
T1 construct: add the Reporter gene pFR-LUC; and add the Gal-4-RXR-DEF and VP16-VDR-LBD; expressed in transfected cells; host or cells: SaOS-2 cells
T1 sequence (P11473 127-423 limits assumed): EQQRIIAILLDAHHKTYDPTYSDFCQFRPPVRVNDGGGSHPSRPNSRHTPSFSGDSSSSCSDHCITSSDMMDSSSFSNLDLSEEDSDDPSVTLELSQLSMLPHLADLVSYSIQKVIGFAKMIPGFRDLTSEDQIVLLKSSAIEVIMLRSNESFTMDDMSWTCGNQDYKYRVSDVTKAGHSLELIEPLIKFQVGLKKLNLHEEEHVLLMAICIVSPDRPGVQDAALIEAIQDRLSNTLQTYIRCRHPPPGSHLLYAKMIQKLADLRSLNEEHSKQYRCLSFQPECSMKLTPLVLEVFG
T1 sequence (P19793 201-462 partner limits assumed): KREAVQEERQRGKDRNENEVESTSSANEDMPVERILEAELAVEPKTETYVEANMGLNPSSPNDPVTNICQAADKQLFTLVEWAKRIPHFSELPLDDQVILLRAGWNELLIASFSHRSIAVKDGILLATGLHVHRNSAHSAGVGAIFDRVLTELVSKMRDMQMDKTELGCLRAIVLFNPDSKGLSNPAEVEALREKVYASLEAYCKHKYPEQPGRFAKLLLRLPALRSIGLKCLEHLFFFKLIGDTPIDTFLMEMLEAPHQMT
Method: 2. The RXR-VDR heterodimerization (SaOS-2 cells) test is described in the “Assay” section of the Description, infra.
1. The RXR-VDR Heterodimer Assay:
This assay provides the VDR activity of a test compound. It is desirable to have low EC50 values for a compound in this assay. […] Desired assay results are EC50 values less than or equal to 600 nM. Preferred assay results are less than 250 nM, and most preferably less than 150 nM.
(1) Materials and Method for RXR-VDR Heterodimerization Assay Transfection
• Method: Reagents: FuGENE 6 Transfection Reagent (Roche Cat #1 814 443); Growth Media: D-MEM High Glucose (Gibco BRL Cat #11054-020), 10% heat inactivated FBS, (Gibco BRL Cat#10092-147) 1% antibiotic-antimycotic (Ab-Am); (Gibco BRL Cat #15240-062). • Cells: Grow SaOS-2 cells in T-150 cm^2 culture flasks in growth media keeping the density at 5-6×10^5 cells/ml. Passage cells 1:3 twice a week. Add Trypsin EDTA (Gibco BRL Cat #25300-020) and incubate. Resuspend cells in plating media and transfer into growth media. • Wash Media: HBSS Low Glucose Without Phenol Red (Gibco BRL Cat #14175-095), 1% Ab-Am. Plating Media: D-MEM Low Glucose Without Phenol Red (Gibco BRL Cat #11054-020), 1% Ab-Am; D-MEM; 10% Stripped FBS (Hyclone Cat#SH30068.03 Lot #AHM9371); • Transfection/Treatment Media: D-MEM Low Glucose Without Phenol Red only; T-150 cm^2 culture flask: Use Corning Coastar T-150 cm^2 culture flask (Cat #430825) to grow the cells. • Luciferase Assay Reagent: Use Steady-Glo Luciferase Reagent from Promega (Cat #E2550) Consists of: E2533 Assay Substrate, lyophilized product and E2543 Assay Buffer. Thaw at room temperature and store. • Cell Harvesting/Count: Aspirate media from culture flask, rinse cells with HBSS and aspirate. Add trypsin and incubate. When cells appear detached, resuspend cells in growth media. Transfer into a new flask with fresh growth media for passaging the cells. Plate 96 well plates and two extra plates. Mix the cell suspension using pipette. To count the cells using a Hematocytometer. • Plate seeding: Use plating media 10% Stripped FBS in D-MEM Low Glucose, without Phenol Red, 1% Ab-Am. Plate 14 plates @ 165 μl/well. In sterile flask add cell suspension to plating media and mix. Add cells/well. Place the cells in the incubator. Cells should be about 75% confluent prior to transfection. DAY 2: Transfection: Step 1, DNA and Media: Add plain DMEM media to tubes for mixing the DNA; add the Reporter gene pFR-LUC; and add the Gal-4-RXR-DEF and VP16-VDR-LBD. Step 2, FuGENE and Media: Prepare plain DMEM media in a tubes for mixing FuGENE, add FuGENE 6 Transfection Reagent, and incubate. Step 3, FuGENE, DNA and Media Complex: Add FuGENE Media complex from step 2 to DNA Media complex from step 1 and incubate. Step 4, FuGENE, DNA and Media Complex to 96 well plate: Add FuGENE-DNA-Media complex from step 3 to each plate. Incubate. • Day 3: Dosing: Treatment preparation. Allow for transfection time. Make a stock solution of the compounds in DMSO and vortex until all the compounds have been dissolved. Further dilute in D-MEM (Low Glucose—without Phenol Red) Add compounds in quadruplicate to give desired final volume then incubate. • Day 4: Luciferase Assay: Read the plates after drug treatment. Remove part of media from all the wells and leave remainder. Add Steady-Glo Luciferase Reagent mixture/wells and incubate. Count each well using a Luminescence counter, Top Count NXT by Packard preferably set a delay between plates to reduce the background.

[2] = test system: rat osteocalcin promoter; assay: OCN (osteocalcin) promoter assay; assay type: cell-based; conditions: RG-15 (ROS 17/2.8) cells, 48 hr treatment, luciferase reporter
Method: 4. The OCN Promoter test is described in the “Assay” section of the Description, infra.
The OCN (Osteocalcin) Promoter Assay
The OCN Promoter Assay is an indicator and marker for osteoporosis. Desired assay results are EC50 less than or equal to 325 nM. Preferred assay results are less than 50 nM.
The activation of osteocalcin by VDR ligands is evaluated in a rat osteoblast-like cell line RG-15 (ROS 17/2.8) stably expressing rat osteocalcin promoter fused with luciferase reporter gene. The stable cell lines are established as reported before (Activation of Osteocalcin Transcription involves interaction of protein kinase A- and Protein kinase C-dependent pathways. Boguslawski, G., Hale, L. V., Yu, X.-P., Miles, R. R., Onyia, J. E., Santerre R. F., Chandrasekhar, S. J Biol. Chem. 275, 999-1006, 2000). Confluent RG-15 cells maintained in DMEM/F-12 medium (3:1) containing 5% FBS, 300 μg/ml G418 and at 37° C. under 5% CO2/95% air atmosphere are trypsinized (0.25% trypsin) and plated into white opaque 96-well cell culture plates (25000 cells/well). After 24 hr, cells (in DMEM/F-12 medium+2% FBS) are treated with various concentrations of compounds, dissolved in DMSO. The final DMSO concentration remains at 0.01% (v/v). After 48 hr treatment, the medium is removed, cells are lysed with 50 μl of lysis buffer (From Luciferase reporter assay system, Roche Diagnostics, Indianapolis, Ind.) and then assayed for luciferase activity using the Luciferase Reporter Gene Assay kit from Boehringer Mannheim as per manufacturer's specifications.

[3] = Mouse hypercalcemia assay; assay type: in vivo
Method: 5. The Mouse Hypercalcemia test is described in the “Assay” section of the Description, infra.
The Mouse Hypercalcemia Assay
The Mouse Hypercalcemia Assay is a six day hypercalcemia test for toxicity and selectivity. Acceptable test results are levels greater than 30 μg/kg/day. Preferred assay results are levels greater than 300 μg/kg/day.
Weanling, virus—antibody-free, five to six weeks old female DBF mice (Harlan, Indianapolis, Ind.) are used for all the studies. Animals are allowed to acclimate to local vivarium conditions for 2 days. Mice are maintained on a 12 hr light/dark cycle at 22° C. with ad lib access to food (TD 5001 with 1.2% Ca and 0.9% P, Teklad, Madison, Wis.) and water. The animals then are divided into groups with 4-5 mice per group. Different doses of test compounds prepared in 10% ethanol and 90% sesame oil, or in an aqueous suspension of sodium lauryl sulfate and CMC (the latter formulation for acidic compounds) are administered to mice orally via gavage for 6 days. 1α-25(OH)2D3 0.5 μg/kg/d was also given to one group of mice as the positive control. Serum ionized calcium is evaluated at 6 hours after the last dosing under isoflurane anesthesia by Ciba-Corning Ca++/PH Analyzer, (Model 634, Chiron Diagnostics Corp., East Walpole, Mass.). Raw data of group differences is assessed by analysis of variance (ANOVA) using Fisher's protected least significant difference (PLSD) where the significance level was P<0.05.

[4] = biological target: T2, VDR (Homo sapiens, UniProt P11473); assay: VDR CTF (Caco-2 cells) co-transfection assay; assay type: cell-based; conditions: pGal4-VDR-LBD, luciferase reporter
T2 construct: the receptor expression vector pGal4-VDR-LBD (10 ng); expressed in transfected cells; host or cells: Caco-2 cells
T2 sequence (P11473 127-423 limits assumed): T1 sequence (P11473 127-423 limits assumed)
Method: 3. The VDR CTF (Caco-2 cells) test is described in the “Assay” section of the Description, infra.
The Caco-2 cell assay is an indicator for the undesirable condition of hypercalcemia. This co-transfection assay is a surrogate assay for in vivo calcemic activity of VDR ligands. It is desirable to have high EC50 values for a test compound in this assay. The higher the EC50 values for a compound the less calcemic it will be in vivo. Desired assay results are EC50 greater than or equal to 300 nM. Preferred assay results are greater than 1000 nM.
Caco-2 cells, grown in phenol red free, DMEM (Invitrogen, Carlsbad, Calif.) containing 10% charcoal-stripped FBS (Hyclone, Logan, Utah), are transfected with Fugene 6 reagent (Roche Diagnostics, Indianapolis, Ind.). Cells (5000/well) are plated 18 h before transfection in a 96 well plate. The cells are transfected with Gal4-responsive reporter pFRLuc (150 ng, Stratagene, La Jolla Calif.) and the receptor expression vector pGal4-VDR-LBD (10 ng), along with Fugene 6 reagent (0.2 μl/well). The DNA-Fugene complex is formed by incubating the mixture for 30 m at room temperature. The cells are transfected in triplicate for 5 h, and treated with various concentrations of VDR ligands (from 0.01 nM to […] concentration range) 18 h post-transfection. The luciferase activity is quantified using Steady-Glo reagent kit (Promega, Madison, Wis.) as per manufacturer's specifications.

[5] = no effect level: highest dose that did not cause hypercalcemia, oral gavage for 6 days, female DBF mice, serum ionized calcium

For CCC(Oc1ccc(C(CC)(CC)c2ccc3cc(C(=O)N(C)CC(=O)O)ccc3c2)cc1C)C(O)C(C)(C)C (stereo not drawn) [Ex. 8, N-methyl-2-[6-{1-ethyl-1-[4-(1-ethyl-2-hydroxy-3,3-dimethyl-butoxy)-3-methyl-phenyl]-propyl}-naphthalene-2-carbonyl-amino]acetic acid], the EC50 [1] was 2 nM, the EC50 ([2]; Rattus norvegicus, 48 h) was 0.6 nM and the “Mouse Hypercal” value [3, 5] was 300 µg/kg/day.
With CCC(CC)(c1ccc(OCC(=O)C(C)(C)C)c(C)c1)c1ccc2ccc(C(=O)O)cc2c1 [Ex. 6, 7-{1-[4-(3,3-Dimethyl-2-oxobutoxy)-3-methylphenyl]-1-ethylpropyl}naphthalene-2-carboxylic acid] the EC50 [1] was 715 nM, the EC50 [4] was 714 nM and the EC50 ([2]; Rattus norvegicus, 48 h) was 104 nM.
In the case of CCC(Oc1ccc(C(CC)(CC)c2ccc3cc(C(=O)NCC(=O)O)ccc3c2)cc1C)C(O)C(C)(C)C (stereo not drawn) [Ex. 7, 2-[6-{1-ethyl-1-[4-(1-ethyl-2-hydroxy-3,3-dimethyl-butoxy)-3-methyl-phenyl]-propyl}-naphthalene-2-carbonylamino]acetic acid], the EC50 [1] is reported as 2.6 nM, the EC50 ([2]; Rattus norvegicus, 48 h) is reported as 0.7 nM and the “Mouse Hypercal” value [3, 5] is reported as 100 µg/kg/day.
In the case of CCC(CC)(c1ccc(OCC(O)C(C)(C)C)c(C)c1)c1ccc2cc(C(=O)O)ccc2c1 (single isomer, unassigned) [Ex. 2B, 6-{1-Ethyl-1-[4-(2-hydroxy-3,3-dimethyl-butoxy)-3-methyl-phenyl]-propyl}-naphthalene-2-carboxylic acid], the EC50 [1] is reported as 25.3 nM, the EC50 [2] is reported as 18.4 nM and the “Mouse Hypercal” value ([3]; female, DBF, mouse, in vivo, po, 6 days) is reported as 1000 µg/kg/day.

From patent US7943795B2, “Vitamin D receptor modulators” (Eli Lilly and Company, priority 2004, dated 2011)
